Source: ChEMBL document CHEMBL6074627 (RSC Med Chem, 2024)
Calls of active or inactive are those of the source. No cut-off for these calls is given here.

Columns and labels:
[1] = biological target: mRNA cap guanine-N(7) methyltransferase (Homo sapiens) (UniProt O43148); assay: Inhibition of human RNMT at 25 uM
SARS-CoV-2 = assay: Antiviral activity against SARS-CoV-2 hCoV-19/Czech Republic/NRL_6632_2/2020 infected in African green monkey Vero E6 cells assessed as reduction in viral growth […] by two-fold serial dilution assay; type: functional, organism-based; conditions: Severe acute respiratory syndrome coronavirus 2
[2] = biological target: Replicase polyprotein 1ab (Severe acute respiratory syndrome coronavirus 2, UniProt P0DTD1); assay: Inhibition of N-terminal 8His and SUMO tagged SARS-CoV-2 nsp14 N7-methyltransferase activity extracted from Escherichia coli using S-Adenosyl-L-methionine as substrate incubated for 30 mins by mass spectrometry

Sequence of mRNA cap guanine-N(7) methyltransferase (Homo sapiens) (O43148 whole entry): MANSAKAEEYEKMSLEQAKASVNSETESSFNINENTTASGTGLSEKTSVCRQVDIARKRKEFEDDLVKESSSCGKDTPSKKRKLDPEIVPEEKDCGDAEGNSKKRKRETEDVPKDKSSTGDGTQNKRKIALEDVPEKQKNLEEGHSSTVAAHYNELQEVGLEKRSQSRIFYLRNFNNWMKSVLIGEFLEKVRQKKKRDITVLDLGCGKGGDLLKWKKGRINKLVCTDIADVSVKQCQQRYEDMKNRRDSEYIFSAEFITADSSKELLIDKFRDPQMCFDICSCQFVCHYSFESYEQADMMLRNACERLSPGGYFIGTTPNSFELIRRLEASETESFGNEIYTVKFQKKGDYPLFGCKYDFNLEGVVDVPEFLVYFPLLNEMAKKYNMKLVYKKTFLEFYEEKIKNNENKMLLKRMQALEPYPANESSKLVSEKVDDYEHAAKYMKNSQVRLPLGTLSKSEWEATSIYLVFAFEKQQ

Row | SMILES | inhibition [1] | Activity (SARS-CoV-2) | IC50 [2]
1 | Cc1cc(=O)[nH]c2cc(N(C)C(=O)[C@H]3O[C@@H](n4cc(C#Cc5cncnc5)c5c(N)ncnc54)[C@H](O)[C@@H]3O)ccc12 | inactive | inactive | 
2 | COC(=O)c1cc(NC(=O)[C@H]2O[C@@H](n3cnc4c(N)ncnc43)[C@H](O)[C@@H]2O)ccc1F |  |  | Not_active
3 | Cc1cc(=O)oc2cc(NC(=O)[C@H]3O[C@@H](n4cc(C#Cc5cncnc5)c5c(N)ncnc54)[C@H](O)[C@@H]3O)ccc12 | inactive | inactive | 
4 | NC(=O)c1ccc(NC(=O)[C@H]2O[C@@H](n3cnc4c(N)ncnc43)[C@H](O)[C@@H]2O)cc1 |  |  | Not_active
5 | Cc1ccc(NC(=O)[C@H]2O[C@@H](n3cnc4c(N)ncnc43)[C@H](O)[C@@H]2O)cc1O |  |  | Not_active
6 | Cc1noc(C)c1-c1ccc(NC(=O)[C@H]2O[C@@H](n3cnc4c(N)ncnc43)[C@H](O)[C@@H]2O)cc1 |  |  | Not_active
7 | Cc1cc(=O)[nH]c2cc(NC(=O)[C@H]3O[C@@H](n4cc(C#Cc5cncnc5)c5c(N)ncnc54)[C@H](O)[C@@H]3O)ccc12 | inactive | inactive | 
8 | Nc1ncnc2c1ncn2[C@@H]1O[C@H](C(=O)Nc2ccc(-c3ccsc3)cc2)[C@@H](O)[C@H]1O |  |  | Not_active
9 | Cc1cc(=O)oc2cc(NC(=O)[C@H]3O[C@@H](n4cnc5c(N)ncnc54)[C@H](O)[C@@H]3O)ccc12 | inactive | inactive | 
10 | COc1cccc(NC(=O)[C@H]2O[C@@H](n3cnc4c(N)ncnc43)[C@H](O)[C@@H]2O)c1 |  |  | Not_active
11 | Nc1ncnc2c1ncn2[C@@H]1O[C@H](C(=O)Nc2ccc(-c3ccoc3)cc2)[C@@H](O)[C@H]1O |  |  | Not_active
12 | Cc1cc(=O)[nH]c2cc(NC(=O)[C@H]3O[C@@H](n4cnc5c(N)ncnc54)[C@H](O)[C@@H]3O)ccc12 | inactive | inactive | 
13 | COC(=O)c1ccc(C(=O)NC[C@H]2O[C@@H](n3cnc4c(N)ncnc43)[C@H](O)[C@@H]2O)cc1 |  |  | Not_active
14 | Nc1ncnc2c1ncn2[C@@H]1O[C@H](C(=O)Nc2ccc(-c3cn[nH]c3)cc2)[C@@H](O)[C@H]1O |  |  | Not_active
15 | Nc1ncnc2c1ncn2[C@@H]1O[C@H](CNC(=O)c2ccc3c(c2)OCCO3)[C@@H](O)[C@H]1O |  |  | Not_active
